Numbered stars: 1 amine (or outer) side, 2 acyl side, 3 side chain; on linkers, the order of the positions; unused ones are H or OH. Square brackets hold non-standard residues; d marks the D form. Peptide text beside a SMILES is read from it. * marks the point of attachment. X2 = CC(=O)N[C@@H](CS)C(=O)OCCOCCOCCN([C@@H](Cc1c[nH]c2ccccc12)C(=O)[*:2])[*:1]; X1 = CC(=O)N[C@@H](CS)C(=O)OCCOCCOCCNCCC(=O)*; Ahx = NCCCCCC(=O)O; βAla = NCCC(=O)O

Nine compounds from ChEMBL document CHEMBL2412996, “Increase of anti-HIV activity of C-peptide fusion inhibitors using a bivalent drug design approach” (Bioorg Med Chem Lett, 2013) can be followed below.

Experiment [1] deals with TZM-bl. As to the kind of experiment: Inhibition of HIV1 HXB2 gp160-mediated cell-cell fusion between viral envelope expressing human HL2/3 cells to human TZM-bl cells expressing CD4, tat, and rev by luciferase reporter gene assay relative to C29. The following applies: Human immunodeficiency virus 1. Type of experiment: cell-based. For orientation: A reporter such as luciferase makes a cellular process visible.

Experiment [2] is described as follows: Inhibition of HIV1 HXB2 gp160-mediated cell-cell fusion between viral envelope expressing human HL2/3 cells to human TZM-bl cells expressing CD4, tat, and rev by luciferase reporter gene assay. In kind it is cell-based. The following applies: Human immunodeficiency virus 1, HXB2, TZM-bl.

What is called IC50 is the midpoint of a concentration-inhibition curve. The low end stands for greater potency, the high end for weaker potency. Take `CC[C@H](C)[C@H](NC(=O)[C@H](CC(C)C)NC(=O)[C@H](CO)NC(=O)[C@H](Cc1cnc[nH]1)NC(=O)[C@@H](NC(=O)[C@H](CC(C)C)NC(=O)[C@H](CO)NC(=O)[C@@H](NC(=O)[C@H](Cc1ccc(O)cc1)NC(=O)[C@H](CC(N)=O)NC(=O)[C@H](CC(N)=O)NC(=O)[C@@H](NC(=O)[C@H](CCC(=O)O)NC(=O)[C@H](CCCNC(=N)N)NC(=O)[C@H](CC(=O)O)NC(=O)[C@H](Cc1c[nH]c2ccccc12)NC(=O)[C@H](CCC(=O)O)NC(=O)[C@H](CCSC)NC(=O)[C@H](Cc1c[nH]c2ccccc12)NC(=O)[C@H](CS)NC(C)=O)[C@@H](C)CC)[C@@H](C)O)[C@@H](C)CC)C(=O)N[C@@H](CCC(=O)O)C(=O)N[C@@H](CCC(=O)O)C(=O)N[C@@H](CO)C(=O)N[C@@H](CCC(N)=O)C(=O)N[C@@H](CC(N)=O)C(=O)N[C@@H](CCC(N)=O)C(=O)N[C@@H](CCC(N)=O)C(=O)N[C@@H](CCC(=O)O)C(=O)N[C@@H](CCCCN)C(=O)N[C@@H](CC(N)=O)C(=O)O` (Ac-CWMEWDREINNYTSLIHSLIEESQNQQEKN-OH): the Ratio in experiment [1] was determined as 2.84. In experiment [2], this compound yielded an IC50 of 41.6 nM. `CC[C@H](C)[C@H](NC(=O)[C@H](CC(C)C)NC(=O)[C@H](CO)NC(=O)[C@H](Cc1cnc[nH]1)NC(=O)[C@@H](NC(=O)[C@H](CC(C)C)NC(=O)[C@H](CO)NC(=O)[C@@H](NC(=O)[C@H](Cc1ccc(O)cc1)NC(=O)[C@H](CC(N)=O)NC(=O)[C@H](CC(N)=O)NC(=O)[C@@H](NC(=O)[C@H](CCC(=O)O)NC(=O)[C@H](CCCNC(=N)N)NC(=O)[C@H](CC(=O)O)NC(=O)[C@H](Cc1c[nH]c2ccccc12)NC(=O)[C@H](CCC(=O)O)NC(=O)[C@H](CCSC)NC(=O)[C@H](Cc1c[nH]c2ccccc12)NC(=O)CCCCCNC(=O)[C@H](CS)NC(C)=O)[C@@H](C)CC)[C@@H](C)O)[C@@H](C)CC)C(=O)N[C@@H](CCC(=O)O)C(=O)N[C@@H](CCC(=O)O)C(=O)N[C@@H](CO)C(=O)N[C@@H](CCC(N)=O)C(=O)N[C@@H](CC(N)=O)C(=O)N[C@@H](CCC(N)=O)C(=O)N[C@@H](CCC(N)=O)C(=O)N[C@@H](CCC(=O)O)C(=O)N[C@@H](CCCCN)C(=O)N[C@@H](CC(N)=O)C(=O)O` (Ac-C[Ahx]WMEWDREINNYTSLIHSLIEESQNQQEKN-OH): in experiment [1], the Ratio stood at 2.41. Moreover, the IC50 in experiment [2] came out at 49 nM. For `CC[C@H](C)[C@H](NC(=O)[C@H](CC(C)C)NC(=O)[C@H](CO)NC(=O)[C@H](Cc1cnc[nH]1)NC(=O)[C@@H](NC(=O)[C@H](CC(C)C)NC(=O)[C@H](CO)NC(=O)[C@@H](NC(=O)[C@H](Cc1ccc(O)cc1)NC(=O)[C@H](CC(N)=O)NC(=O)[C@H](CC(N)=O)NC(=O)[C@@H](NC(=O)[C@H](CCC(=O)O)NC(=O)[C@H](CCCNC(=N)N)NC(=O)[C@H](CC(=O)O)NC(=O)[C@H](Cc1c[nH]c2ccccc12)NC(=O)[C@H](CCC(=O)O)NC(=O)[C@H](CCSC)NC(=O)[C@H](Cc1c[nH]c2ccccc12)NC(=O)CCNC(=O)[C@H](CS)NC(C)=O)[C@@H](C)CC)[C@@H](C)O)[C@@H](C)CC)C(=O)N[C@@H](CCC(=O)O)C(=O)N[C@@H](CCC(=O)O)C(=O)N[C@@H](CO)C(=O)N[C@@H](CCC(N)=O)C(=O)N[C@@H](CC(N)=O)C(=O)N[C@@H](CCC(N)=O)C(=O)N[C@@H](CCC(N)=O)C(=O)N[C@@H](CCC(=O)O)C(=O)N[C@@H](CCCCN)C(=O)N[C@@H](CC(N)=O)C(=O)O` (Ac-C[βAla]WMEWDREINNYTSLIHSLIEESQNQQEKN-OH) the same measures were 6.01 and 19.7 nM. `CC[C@H](C)[C@H](NC(=O)[C@H](CC(C)C)NC(=O)[C@H](CCC(=O)O)NC(=O)[C@H](CCC(=O)O)NC(=O)[C@@H](NC(=O)[C@H](CCCCN)NC(=O)[C@H](CCCCN)NC(=O)[C@@H](NC(=O)[C@H](Cc1ccc(O)cc1)NC(=O)[C@H](CCC(=O)O)NC(=O)[C@H](CCC(=O)O)NC(=O)[C@@H](NC(=O)[C@H](CCCCN)NC(=O)[C@H](CCCCN)NC(=O)[C@H](CC(=O)O)NC(=O)[C@H](Cc1c[nH]c2ccccc12)NC(=O)[C@H](CCC(=O)O)NC(=O)[C@H](CCC(=O)O)NC(=O)[C@H](Cc1c[nH]c2ccccc12)NC(C)=O)[C@@H](C)CC)[C@@H](C)O)[C@@H](C)CC)C(=O)N[C@@H](CCCCN)C(=O)N[C@@H](CCCCN)C(=O)N[C@@H](CO)C(=O)O` (Ac-WEEWDKKIEEYTKKIEELIKKS-OH): it took 345 nM to reach half-maximal inhibition in experiment [2] (IC50).

In experiment [2], `CC[C@H](C)[C@H](NC(=O)[C@H](CC(C)C)NC(=O)[C@H](CO)NC(=O)[C@H](Cc1cnc[nH]1)NC(=O)[C@@H](NC(=O)[C@H](CC(C)C)NC(=O)[C@H](CO)NC(=O)[C@@H](NC(=O)[C@H](Cc1ccc(O)cc1)NC(=O)[C@H](CC(N)=O)NC(=O)[C@H](CC(N)=O)NC(=O)[C@@H](NC(=O)[C@H](CCC(=O)O)NC(=O)[C@H](CCCNC(=N)N)NC(=O)[C@H](CC(=O)O)NC(=O)[C@H](Cc1c[nH]c2ccccc12)NC(=O)[C@H](CCC(=O)O)NC(=O)[C@H](CCSC)NC(=O)[C@H](Cc1c[nH]c2ccccc12)NC(C)=O)[C@@H](C)CC)[C@@H](C)O)[C@@H](C)CC)C(=O)N[C@@H](CCC(=O)O)C(=O)N[C@@H](CCC(=O)O)C(=O)N[C@@H](CO)C(=O)O` (Ac-WMEWDREINNYTSLIHSLIEES-OH) displayed a half-inhibitory concentration (IC50) of 1240 nM. Take `CC[C@H](C)[C@H](NC(=O)[C@H](CC(C)C)NC(=O)[C@H](CO)NC(=O)[C@H](Cc1cnc[nH]1)NC(=O)[C@@H](NC(=O)[C@H](CC(C)C)NC(=O)[C@H](CO)NC(=O)[C@@H](NC(=O)[C@H](Cc1ccc(O)cc1)NC(=O)[C@H](CC(N)=O)NC(=O)[C@H](CC(N)=O)NC(=O)[C@@H](NC(=O)[C@H](CCC(=O)O)NC(=O)[C@H](CCCNC(=N)N)NC(=O)[C@H](CC(=O)O)NC(=O)[C@H](Cc1c[nH]c2ccccc12)NC(=O)[C@H](CCC(=O)O)NC(=O)[C@H](CCSC)NC(=O)[C@H](Cc1c[nH]c2ccccc12)NC(C)=O)[C@@H](C)CC)[C@@H](C)O)[C@@H](C)CC)C(=O)N[C@@H](CCC(=O)O)C(=O)N[C@@H](CCC(=O)O)C(=O)N[C@@H](CO)C(=O)N[C@@H](CCC(N)=O)C(=O)N[C@@H](CC(N)=O)C(=O)N[C@@H](CCC(N)=O)C(=O)N[C@@H](CCC(N)=O)C(=O)N[C@@H](CCC(=O)O)C(=O)N[C@@H](CCCCN)C(=O)N[C@@H](CC(N)=O)C(=O)O` (Ac-WMEWDREINNYTSLIHSLIEESQNQQEKN-OH): the midpoint of inhibition in experiment [2], the IC50, lay at 118 nM.

With `CC[C@H](C)[C@H](NC(=O)[C@H](CC(C)C)NC(=O)[C@H](CO)NC(=O)[C@H](Cc1cnc[nH]1)NC(=O)[C@@H](NC(=O)[C@H](CC(C)C)NC(=O)[C@H](CO)NC(=O)[C@@H](NC(=O)[C@H](Cc1ccc(O)cc1)NC(=O)[C@H](CC(N)=O)NC(=O)[C@H](CC(N)=O)NC(=O)[C@@H](NC(=O)[C@H](CCC(=O)O)NC(=O)[C@H](CCCNC(=N)N)NC(=O)[C@H](CC(=O)O)NC(=O)[C@H](Cc1c[nH]c2ccccc12)NC(=O)[C@H](CCC(=O)O)NC(=O)[C@H](CCSC)NC(=O)[C@H](Cc1c[nH]c2ccccc12)NC(C)=O)[C@@H](C)CC)[C@@H](C)O)[C@@H](C)CC)C(=O)N[C@@H](CCC(=O)O)C(=O)N[C@@H](CCC(=O)O)C(=O)N[C@@H](CO)C(=O)N[C@@H](CCC(N)=O)C(=O)N[C@@H](CC(N)=O)C(=O)N[C@@H](CCC(N)=O)C(=O)N[C@@H](CCC(N)=O)C(=O)N[C@@H](CCC(=O)O)C(=O)N[C@@H](CCCCN)C(=O)N[C@@H](CC(N)=O)C(=O)NCCCCCC(=O)N[C@@H](CS)C(=O)O` (Ac-WMEWDREINNYTSLIHSLIEESQNQQEKN[Ahx]C-OH), in experiment [1], the Ratio was found to be 0.58. The compound further came in with an IC50 in experiment [2] of 203 nM. As for `CC[C@H](C)[C@H](NC(=O)[C@H](CC(C)C)NC(=O)[C@H](CO)NC(=O)[C@H](Cc1cnc[nH]1)NC(=O)[C@@H](NC(=O)[C@H](CC(C)C)NC(=O)[C@H](CO)NC(=O)[C@@H](NC(=O)[C@H](Cc1ccc(O)cc1)NC(=O)[C@H](CC(N)=O)NC(=O)[C@H](CC(N)=O)NC(=O)[C@@H](NC(=O)[C@H](CCC(=O)O)NC(=O)[C@H](CCCNC(=N)N)NC(=O)[C@H](CC(=O)O)NC(=O)[C@H](Cc1c[nH]c2ccccc12)NC(=O)[C@H](CCC(=O)O)NC(=O)[C@H](CCSC)NC(=O)[C@H](Cc1c[nH]c2ccccc12)NCCOCCOCCOC(=O)[C@H](CS)NC(C)=O)[C@@H](C)CC)[C@@H](C)O)[C@@H](C)CC)C(=O)N[C@@H](CCC(=O)O)C(=O)N[C@@H](CCC(=O)O)C(=O)N[C@@H](CO)C(=O)N[C@@H](CCC(N)=O)C(=O)N[C@@H](CC(N)=O)C(=O)N[C@@H](CCC(N)=O)C(=O)N[C@@H](CCC(N)=O)C(=O)N[C@@H](CCC(=O)O)C(=O)N[C@@H](CCCCN)C(=O)N[C@@H](CC(N)=O)C(=O)O` (H-[X2]MEWDREINNYTSLIHSLIEESQNQQEKN-OH), the Ratio in experiment [1] is 7.69. Also, in experiment [2], the IC50 was determined as 15.4 nM. Regarding `CC[C@H](C)[C@H](NC(=O)[C@H](CC(C)C)NC(=O)[C@H](CO)NC(=O)[C@H](Cc1cnc[nH]1)NC(=O)[C@@H](NC(=O)[C@H](CC(C)C)NC(=O)[C@H](CO)NC(=O)[C@@H](NC(=O)[C@H](Cc1ccc(O)cc1)NC(=O)[C@H](CC(N)=O)NC(=O)[C@H](CC(N)=O)NC(=O)[C@@H](NC(=O)[C@H](CCC(=O)O)NC(=O)[C@H](CCCNC(=N)N)NC(=O)[C@H](CC(=O)O)NC(=O)[C@H](Cc1c[nH]c2ccccc12)NC(=O)[C@H](CCC(=O)O)NC(=O)[C@H](CCSC)NC(=O)[C@H](Cc1c[nH]c2ccccc12)NC(=O)CCNCCOCCOCCOC(=O)[C@H](CS)NC(C)=O)[C@@H](C)CC)[C@@H](C)O)[C@@H](C)CC)C(=O)N[C@@H](CCC(=O)O)C(=O)N[C@@H](CCC(=O)O)C(=O)N[C@@H](CO)C(=O)N[C@@H](CCC(N)=O)C(=O)N[C@@H](CC(N)=O)C(=O)N[C@@H](CCC(N)=O)C(=O)N[C@@H](CCC(N)=O)C(=O)N[C@@H](CCC(=O)O)C(=O)N[C@@H](CCCCN)C(=O)N[C@@H](CC(N)=O)C(=O)O` (X1-WMEWDREINNYTSLIHSLIEESQNQQEKN-OH), the Ratio in experiment [1] was 8.08. The IC50 in experiment [2] came to 14.7 nM.
